{
  "source": "patent US12285403B2",
  "about": "“A2-73 as a therapeutic for insomnia, anxiety and agitation” (Anavex Life Sciences Corp., priority 2016, dated 2025)",
  "key": {"[1]": {"test_system": "insomnia, anxiety or agitation", "assay": "Single-patient therapy Examples 1-10 (insomnia, anxiety, agitation)", "assay_type": "in vivo, human", "description": "A person presents as suffering from maintenance insomnia for one year. They are started on oral A2-73 at 10 mg/day. […] They are currently maintained on 10 mg of A2-73 and is sleeping well. A person presents with anxiety of three years' duration. They are administered A2-73 at 20 mg oral per day every other day. […] They are maintained on this dosing schedule for 60 days. […] They are treated with 30 mg A2-73 oral daily for 30 days. […] They are currently maintained at that dosage and is not anxious. A person presents with MCI and reports maintenance insomnia for one year. They are started on oral A1-41 at 10 mg/day. […] They are currently maintained on 10 mg of A1-41 and is sleeping well. The patient is a person with diagnosed AD and reported anxiety of three years' duration. They are administered A19-144 at 20 mg oral per day every day for 90 days. […] They are chronically maintained on this dosing schedule. A person diagnosed with mild cognitive impairment presents as suffering from maintenance insomnia for one year. They are started on oral A2-73 at 50 mg/day. […] They are currently maintained on 50 mg of A2-73 daily and is sleeping well. A person diagnosed with Alzheimer's disease presents with insomnia/WASO and agitation and a systolic blood pressure of 145 mm Hg. They are started on oral A2-73 at 30 mg/day. […] They are also less agitated. Their results on all cognitive tests and HAM-D improve. They are currently maintained on 30 mg of A2-73 daily. A person diagnosed with Alzheimer's disease presents with insomnia/WASO and agitation. They are started on oral A2-73 at 100 mg/day. […] They are also less agitated. Their results on all cognitive tests and HAM-D improve. They are currently maintained on 100 mg of A2-73 every other day. A person diagnosed with Alzheimer's disease presents with insomnia/WASO and agitation. They are started on oral A19-144 at 50 mg/day. […] They are also less agitated. Their results on all cognitive tests and HAM-D improve. They are currently maintained on 50 mg of A19-144 daily. A person diagnosed with Alzheimer's disease presents with insomnia/WASO and agitation. They are started on oral A1-41 at 30 mg/day. […] They are also less agitated. Their results on all cognitive tests and HAM-D improve. They are currently maintained on 30 mg of A1-41 daily."}, "[2]": {"test_system": "mild-to-moderate Alzheimer's disease patients", "assay": "Cogstate test battery, Phase 2a study", "assay_type": "in vivo, human", "conditions": "over 31 weeks of treatment; FIG. 8; listed as ANAVEX 2-73, hydrochloride", "text": "Although the present invention calls for methods of treating insomnia, some primary sleep disorders, such as circadian rhythm disorders, advanced sleep phase disorder also termed sleep onset insomnia, mid-nocturnal insomnia, early morning insomnia, hyper insomnia, trouble staying asleep, jet lag, narcolepsy, non-24-hour sleep-wake syndrome, include insomnia as a component of the disorder. Thus, the term “insomnia” should be understood to also include the insomnia component of these disorders. • Aβ—Amyloid beta is abbreviated as Aβ. • AD—Alzheimer's disease is abbreviated as AD. • ADCS-ADL—Alzheimer's Disease Cooperative Study Activities of Daily Living Inventory is abbreviated as ADCS-ADL. • Cogstate tasks—Cogstate tasks refers to Cogstate cognitive tests (Cogstate Alzheimer's Battery) using visual and verbal stimuli to ensure assessment. […] When a number of these individual tests are put together to form a test battery, a more complete picture of a person's cognitive state can be defined. • DPZ—Donepezil is abbreviated as DPZ. • EEG/ERP—EEG/ERP is a reference to ERP measured via EEG. • ERP—Event-related potential is abbreviated as ERP. • HAM-D—Hamilton Depression Rating Scale is abbreviated as HAM-D. • MCI—Mild cognitive impairment is abbreviated as MCI. • MMSE—MMSE refers to the Mini-Mental State Examination (MMSE) or Folstein test. […]"}, "[3]": {"conditions": "Example 7: oral 30 mg/day, 30 days"}, "[4]": {"conditions": "Example 8: oral 100 mg/day, 30 days"}},
  "note": "Entries after “also recorded” stand apart in the source; their conditions may differ.",
  "data": [
    {"smiles": "CN(C)CC1CCOC1(c1ccccc1)c1ccccc1.Cl", "note": "(stereo not drawn) [A2-73, tetrahydro-N,N-dimethyl-2,2-diphenyl-3-furanmethanamine hydrochloride]", "values": [
      {"measurement": "Sleep at follow up (maintenance insomnia)", "setting": "[1]; Example 1: person, oral 10 mg/day, 30 days", "result": "sleeping well"},
      {"measurement": "Anxiety", "setting": "[1]; Example 2: person, 20 mg oral every other day, after two days of dosing", "result": "Resolution of the anxiety"},
      {"measurement": "Clinical evaluation of agitation", "setting": "[1]; Example 3: person, 30 mg oral daily for 30 days", "result": "normal affect without agitation"},
      {"measurement": "Sleep at follow up (maintenance insomnia)", "setting": "[1]; Example 6: person with MCI, oral 50 mg/day, 30 days", "result": "sleeping well"},
      {"measurement": "Agitation at follow up", "setting": "[1]; [3]", "result": "less agitated"},
      {"measurement": "Results on all cognitive tests and HAM-D", "setting": "[1]; [3]", "result": "improve"},
      {"measurement": "Systolic BP at follow up", "setting": "[1]; Example 7: oral 30 mg/day, 30 days, 145 mm Hg at presentation", "result": 129, "unit": "mm Hg"},
      {"measurement": "Sleep at follow up (insomnia/WASO)", "setting": "[1]; Example 7: person with AD, oral 30 mg/day, 30 days", "result": "sleeping well through the night"},
      {"measurement": "Agitation at follow up", "setting": "[1]; [4]", "result": "less agitated"},
      {"measurement": "Results on all cognitive tests and HAM-D", "setting": "[1]; [4]", "result": "improve"},
      {"measurement": "Sleep at follow up (insomnia/WASO)", "setting": "[1]; Example 8: person with AD, oral 100 mg/day, 30 days", "result": "sleeping well through the night"},
      {"measurement": "Cogstate tasks: psychomotor function, attention and working memory", "setting": "[2]", "result": "sustained benefit; also recorded: benefits over baseline"}
    ]}
  ]
}
